Test results from US12697366B2, “Thermogenic compositions and methods” (Ohio State Innovation Foundation, priority 2016, dated 2026).

Columns and labels:
[1] = system: human brain endothelial cells (hBEC); assay: FD-glucose uptake in human brain endothelial cells (hBEC); type: cell-based; details: hINS 1.7 μM, AAC2 0.1 μM, 50 min; FIG. 42B
Experimental: FD-glucose uptake in human brain endothelial cells (hBEC, n=8 per treatment) treated with vehicle (Veh; PBS, open bar) or hINS (1.7 μM), human leptin (hLep; 62.5 nM, hatched bar), or AAC2 (0.1 μM black bar) in the presence and absence of GLUT1 inhibitor (BAY-876; 10 nM in DMSO). Cells were pre-treated with or without BAY-876 for 40 min and then FD glucose and treatment reagents were added for additional 50 min of incubation. Data (%) was normalized to FD-glucose uptake in control (Veh) hBEC without inhibitor (100%).

ob/ob mice = assay: Study 4 (Example 2): EREG injected into epididymal iAb fat of ob/ob mice; type: in vivo, mouse
Experimental: 6-week old Ob/Ob male mice, purchased from the Jackson laboratory (n=10), were fed a high fat diet (HF, 45% kcal from fat, D12451, Research Diet Inc., New Brunswick, NJ) for 30 days and then randomly assigned into two groups: • 1) a control group injected with 0.1 mL sterile PBS into both epididymal iAb fat (n=5), and • 2) EREG-treated group injected with 60 ng EREG per epididymal iAb fat depot (n=5). Mice were injected with 0.1 mL sterile PBS, containing 600 ng EREG/mL. These mice were pair fed and individually housed during injections. […] Metabolic measurements were performed as described in 2.5. WAT were collected for protein, mRNA, and histology. Metabolic parameters in study 2.3 and 2.4 were measured by indirect calorimetry (CLAMS, Columbus Instruments, Columbus, OH) at ambient temperature (22° C.) with 12 h light/dark cycles. Animals were fed the same HF diet and water provided ad libitum. Mice were placed individually and allowed to acclimatize in the chambers for 12 h, and O2 consumption, CO2 production, energy expenditure, and locomotor activity were measured for 24 h. Then temperature was changed to 4° C. for 6 h. […] GTT was performed in overnight fasted Ob/Ob mice (study 4, N=5 per group) by intraperitoneal injection of 0.004 mL 25% glucose/g body weight. One week after GTT, an ITT test was performed in same overnight fasted mice. They were injected with a single intraperitoneal insulin dose (1 mU of insulin/g body weight). Blood glucose was measured from mouse tails by One Touch Ultra glucometer (LifeScan, Wayne, PA).

PPARα-LBD = PPARα-LBD luciferase reporter in transiently transfected HEK293 cells; type: cell-based, human; details: EREG, 12 hrs
Experimental: FIGS. 11A to 11I show adipokine Ereg is bilaterally associated with obesity and thermogenesis and activates PPARα. […] Microarray gene analysis was performed using Affymetrix microarray. FIG. 11B: Ereg expression was measured in non-differentiated and differentiated (day 5) 3T3-L1 adipocytes (Mann-Whitney test) using a customized NanoString mouse panel. FIG. 11C: Ereg expression was measured in differentiated (day 5) 3T3-L1 and Aldh1a1^−/− adipocytes by Taqman and normalized to TATA box protein (TBP). FIG. 11D: Plasma EREG concentrations were measured in mice from Study 1 by western blot. […] FIG. 11E: Plasma EREG concentrations were measured and quantified in iAb of WT and ob/ob mice from Study 2 by western blot (n=5 per each group). […] FIG. 11F: EREG was measured in iAb, subcutaneous and brown fat by western blot. Fat pads were dissected from WT mice on regular chow (Study 1). FIG. 11G: Ucp2 and Ucp1 expression was measured in differentiated 3T3-L1 adipocytes (day 5) stimulated with vehicle (PBS) or recombinant EREG (50 ng/mL) added in the differentiation medium I and II. Expression level were measured by Taqman and normalized by TBP. FIGS. 11H and 11I: HEK293 cells were transiently transfected with PPARα-LBD, UASTK-luciferase, and renilla. […] Data represents % PPARα-LBD activation. Asterisks indicate significant difference (p<0.05) compared to vehicle control, #, indicates statistical difference between PPARα-LBD activation by EREG alone and in the presence of inhibitors. Data represent mean±SD. The Mann-Whitney test was used throughout these studies for group comparison.
HEK293 cells ([…] cells, 24-well plates) were used for transient transfection experiments. Cells were transfected with human PPARα-LBD construct, yeast UASTK luciferase reporter (SwitchGear Genomics, Menlo Park, CA), using Fugene (Roche Applied Science, Indianapolis, IN). Transfections were carried out in OptiMeM (Invitrogen, Carlsbad, CA) medium for 12 hours as described previously. Luciferase was measured using Promega assay according to manufacturer's instructions

3T3-L1 adipocytes = assay: Thermogenic gene expression in 3T3-L1 adipocytes (TaqMan / RT-PCR); type: cell-based, mouse
Experimental: FIGS. 9A to 9D show DRG neurons (500 neurons per well) cultured in DRG culture medium only, or DRG culture medium with NT-3 (1 ng/mL), with NGF (10 ng/mL), with WT secretome (1/1, v/v), or with Aldh1a1^−/− secretome (1/1, v/v) for 24 hours. WT and Aldh1a1^−/− adipocytes differentiated for 5 days. Secretome is the media collected from these cells for 24 h. Neurite outgrowth parameters were assayed using the Thermo Scientific™ ArrayScan™ XTI Live High Content microscope and analyzed with the Neuronal Profiling Algorithm (ThermoFisher). Nine independent experiments were performed using DRG from three mice. Each DRG batch was analyzed in triplicate. Data are shown as mean±SD obtained with one DRG batch. Asterisks indicate P<0.05 between different groups; Mann-Whitney U test. FIG. 9A: Representative images show ~25% of area used for the automatic quantification of neuronal parameters in FIG. 3 per one condition. […] FIG. 9B: Secreted EFNA5 levels in the medium from 3T3-L1 preadipocytes and adipocytes differentiated for 4d were analyzed by ELISA. FIG. 9C: Basal metabolic rate (heat) was measured in PBS- and EFNA5-injected mice from Table 1, Study 4 by an open circuit indirect calorimetry treadmill. […] Expression was measured by RT-PCR and normalized by 18S.
FIGS. 11A to 11I show adipokine Ereg is bilaterally associated with obesity and thermogenesis and activates PPARα. […] FIG. 11B: Ereg expression was measured in non-differentiated and differentiated (day 5) 3T3-L1 adipocytes (Mann-Whitney test) using a customized NanoString mouse panel. FIG. 11C: Ereg expression was measured in differentiated (day 5) 3T3-L1 and Aldh1a1^−/− adipocytes by Taqman and normalized to TATA box protein (TBP). FIG. 11D: Plasma EREG concentrations were measured in mice from Study 1 by western blot. […] FIG. 11E: Plasma EREG concentrations were measured and quantified in iAb of WT and ob/ob mice from Study 2 by western blot (n=5 per each group). […] FIG. 11F: EREG was measured in iAb, subcutaneous and brown fat by western blot. […] Expression level were measured by Taqman and normalized by TBP. […]

Row | Substance | glucose uptake in human blood-brain barrier endothelial cells [1] | RER during the light cycle (ob/ob mice; EREG-treated vs control) | activity after transition from ambient temperature to the cold (ob/ob mice; EREG-treated vs control) | weight gain (ob/ob mice; after 6 weeks of treatment with EREG) | expression of PPARα target genes and mitochondrial genes in iAb fat (ob/ob mice; between groups) | metabolic rate before and during cold exposure (ob/ob mice; between groups) | response to insulin (ITT) (ob/ob mice; between groups) | glucose tolerance (GTT) (ob/ob mice; compared to non-treated group) | weight of BAT, WAT depot and liver (ob/ob mice; mouse, in vivo) | food intake (ob/ob mice; pair-fed HF diet) | induction of PPARα (PPARα-LBD activation) (PPARα-LBD) | expression of thermogenic gene Pgc1a (3T3-L1 adipocytes; 10 ng/ml recombinant EREG, FIG. 22) | Ucp1 and Ucp2 expression (3T3-L1 adipocytes; recombinant EREG 50 ng/mL, day 5)
1 | insulin: insulin (bovine or human) | not |  |  |  |  |  |  |  |  |  |  |  | 
2 | EREG: Epiregulin, member of the epidermal growth factor family; recombinant mouse or human protein |  | significantly lower | higher | reduced | similar | identical | similar | markedly improved | not associated with significant changes | identical | dose dependent induction | increases | induced
